Laboratory results: patent US11117915B2, “Antibacterial aminoglycoside analogs” (Cipla USA, Inc., priority 2007, dated 2021)
Converted amounts (≈) assume the structure as drawn.

Experiments:
P. aeruginosa ATCC 27853 = assay: MIC assay, CLSI broth microdilution, P. aeruginosa ATCC 27853 (APAE001); type: cell-based; settings: Pseudomonas aeruginosa, ATCC27853, 20 h, read-out: MIC APAE001
In short: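 MICs were read after 20 hours at 35° C in ambient air, with a final inoculum of 5×10^5 CFU/mL from saline-suspended overnight colonies. Serial two-fold dilutions in Mueller Hinton Broth followed the CLSI reference method (M7-A7), with QC strains E. coli ATCC 25922, P. aeruginosa ATCC 27853 and S. aureus ATCC 29213.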

E. coli ATCC 25922 = assay: MIC assay, CLSI broth microdilution, E. coli ATCC 25922 (AECO001); type: cell-based; settings: Escherichia coli, ATCC25922, 20 h, read-out: MIC AECO001
In short: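 CLSI broth microdilution (M7-A7): two-fold compound dilutions in Mueller Hinton Broth, inoculum 5×10^5 CFU/mL final. Plates incubated 20 hours at 35° C. in ambient air; MIC read as lowest inhibitory concentration.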

| SMILES | MIC (P. aeruginosa ATCC 27853) [µg/mL] | MIC (E. coli ATCC 25922) [µg/mL] |
| --- | --- | --- |
| CN[C@@H]1[C@@H](O)[C@@H](O[C@@H]2[C@@H](O)[C@H](O[C@H]3OC(CNCCC4(O)CNC4)=CC[C@H]3N)[C@@H](N)C[C@H]2NC(=O)[C@@H](O)CN)OC[C@]1(C)O [Example 70, 6′-(Ethyl-2-(3-hydroxy-azetidin-3-yl))-1-(3-amino-2(S)-hydroxy-propionyl)-sisomicin] | > 16 | 1 to 16 (≈ 1.58 to 25.2 µM) |
| CN[C@@H]1[C@@H](O)[C@@H](O[C@@H]2[C@@H](O)[C@H](O[C@H]3OC(CNCC4CC4)=CC[C@H]3N)[C@@H](N)C[C@H]2NC(=O)C(O)C2CNC2)OC[C@]1(C)O (stereo partly drawn) [Example 71, 6′-Methylcyclopropyl-1-(2-(azetidin-3-yl)-2-hydroxy-acetyl)-sisomicin] | > 16 | 1 to 16 (≈ 1.63 to 26 µM) |
| CN[C@@H]1[C@@H](O)[C@@H](O[C@@H]2[C@@H](O)[C@H](O[C@H]3OC(CNC[C@H]4C[C@H](N)C4)=CC[C@H]3N)[C@@H](N)C[C@H]2NC(=O)C(O)C2CNC2)OC[C@]1(C)O (stereo partly drawn) [Example 72, 6′-(Methyl-trans-3-amino-cyclobutyl)-1-(2-(azetidin-3-yl)-2-hydroxy-acetyl)-sisomicin] | 1 to 16 (≈ 1.55 to 24.9 µM) | 1 to 16 (≈ 1.55 to 24.9 µM) |
| CN[C@@H]1[C@@H](O)[C@@H](O[C@@H]2[C@@H](O)[C@H](O[C@H]3OC(CNCC4CNC4)=CC[C@H]3N)[C@@H](N)C[C@H]2NC(=O)[C@@H](O)CN)OC[C@]1(C)O [Example 73, 6′-(Methyl-azetidin-3-yl)-1-(3-amino-2(S)-hydroxy-propionyl)-sisomicin] | 1 to 16 (≈ 1.66 to 26.5 µM) | 1 to 16 (≈ 1.66 to 26.5 µM) |
| CN[C@@H]1[C@@H](O)[C@@H](O[C@@H]2[C@@H](O)[C@H](O[C@H]3OC(CNCC4(CN)CC4)=CC[C@H]3N)[C@@H](N)C[C@H]2NC(=O)C(O)C2CNC2)OC[C@]1(C)O (stereo partly drawn) [Example 74, 6′-(Methyl-1-aminomethyl-cyclopropyl)-1-(2-(azetidin-3-yl)-2-hydroxy-acetyl)-sisomicin] | > 16 | 1 to 16 (≈ 1.55 to 24.9 µM) |
| CN[C@@H]1[C@@H](O)[C@@H](O[C@@H]2[C@@H](O)[C@H](O[C@H]3OC(CNCCO)=CC[C@H]3N)[C@@H](N)C[C@H]2NC(=O)C(O)C2CNC2)OC[C@]1(C)O (stereo partly drawn) [Example 75, 6′-(2-Hydroxy-ethyl)-1-(2-(azetidin-3-yl)-2-hydroxy-acetyl)-sisomicin] | > 16 | 1 to 16 (≈ 1.65 to 26.5 µM) |
| CN[C@@H]1[C@@H](O)[C@@H](O[C@@H]2[C@@H](O)[C@H](O[C@H]3OC(CNCCCN)=CC[C@H]3N)[C@@H](N)C[C@H]2NC(=O)C(O)C2CNC2)OC[C@]1(C)O (stereo partly drawn) [Example 76, 6′-(3-Amino-propyl)-1-(2-(azetidin-3-yl)-2-hydroxy-acetyl)-sisomicin] | 1 to 16 (≈ 1.62 to 25.9 µM) | 1 to 16 (≈ 1.62 to 25.9 µM) |
| CN[C@@H]1[C@@H](O)[C@@H](O[C@@H]2[C@@H](O)[C@H](O[C@H]3OC(CNCC(O)CCN)=CC[C@H]3N)[C@@H](N)C[C@H]2NC(=O)C(O)C2CNC2)OC[C@]1(C)O (stereo partly drawn) [Example 77, 6′-(2-Hydroxy-4-amino-butyl)-1-(2-(azetidin-3-yl)-2-hydroxy-acetyl)-sisomicin] | 1 to 16 (≈ 1.54 to 24.7 µM) | 1 to 16 (≈ 1.54 to 24.7 µM) |
| CN[C@@H]1[C@@H](O)[C@@H](O[C@@H]2[C@@H](O)[C@H](O[C@H]3OC(CNC[C@H]4C[C@H](N)C4)=CC[C@H]3N)[C@@H](N)C[C@H]2NC(=O)C2(O)CCNC2)OC[C@]1(C)O (stereo partly drawn) [Example 78, 6′-(Methyl-trans-3-amino-cyclobutyl)-1-(3-hydroxy-pyrrolidin-3-yl-acetyl)-sisomicin] | 1 to 16 (≈ 1.55 to 24.9 µM) | < 1 |
| CN[C@@H]1[C@@H](O)[C@@H](O[C@@H]2[C@@H](O)[C@H](O[C@H]3OC(CNCC4(CN)CC4)=CC[C@H]3N)[C@@H](N)C[C@H]2NC(=O)C2(O)CCNC2)OC[C@]1(C)O (stereo partly drawn) [Example 79] | > 16 | 1 to 16 (≈ 1.55 to 24.9 µM) |
| CN[C@@H]1[C@@H](O)[C@@H](O[C@@H]2[C@@H](O)[C@H](O[C@H]3OC(CNCCCC(O)CN)=CC[C@H]3N)[C@@H](N)C[C@H]2NC(=O)[C@@H](O)CN)OC[C@]1(C)O (stereo partly drawn) [Example 80, 6′-(4-Hydroxy-5-amino-pentyl)-1-(3-amino-2(S)-hydroxy-propionyl)-sisomicin] | < 1 | < 1 |
| CN[C@@H]1[C@@H](O)[C@@H](O[C@@H]2[C@@H](O)[C@H](O[C@H]3OC(CNCCNC4CNC4)=CC[C@H]3N)[C@@H](N)C[C@H]2NC(=O)[C@@H](O)CN)OC[C@]1(C)O [Example 81, 6′-(N-(Azetidin-3-yl)-2-amino-ethyl)-1-(3-amino-2(S)-hydroxy-propionyl)-sisomicin] | > 16 | 1 to 16 (≈ 1.58 to 25.3 µM) |
| CN[C@@H]1[C@@H](O)[C@@H](O[C@@H]2[C@@H](O)[C@H](O[C@H]3OC(CNCC(O)CN)=CC[C@H]3N)[C@@H](N)C[C@H]2NC(=O)C(O)C2CNC2)OC[C@]1(C)O (stereo partly drawn) [Example 82, 6′-(2-Hydroxy-3-amino-propyl)-1-(2-(azetidin-3-yl)-2-hydroxy-acetyl)-sisomicin] | > 16 | 1 to 16 (≈ 1.58 to 25.2 µM) |
| CN[C@@H]1[C@@H](O)[C@@H](O[C@@H]2[C@@H](O)[C@H](O[C@H]3OC(CNCC4(O)CC(N)C4)=CC[C@H]3N)[C@@H](N)C[C@H]2NC(=O)C(O)C2CNC2)OC[C@]1(C)O (stereo partly drawn) [Example 83, 6′-(Methyl-3-amino-1-hydroxy-cyclobutyl)-1-(2-(azetidin-3-yl)-2-hydroxy-acetyl)-sisomicin] | > 16 | 1 to 16 (≈ 1.52 to 24.3 µM) |
| CN[C@@H]1[C@@H](O)[C@@H](O[C@@H]2[C@@H](O)[C@H](O[C@H]3OC(CN)=CC[C@H]3NCC3CCNC3)[C@@H](N)C[C@H]2NC(=O)[C@@H](O)CCN)OC[C@]1(C)O (stereo partly drawn) [Example 84, 2′-(Methyl-pyrrolidin-3-yl)-1-(4-amino-2(S)-hydroxy-butyryl)-sisomicin] | 1 to 16 (≈ 1.58 to 25.3 µM) | < 1 |
| CN[C@@H]1[C@@H](O)[C@@H](O[C@@H]2[C@@H](O)[C@H](O[C@H]3OC(CN)=CC[C@H]3NCC3CCCN3)[C@@H](N)C[C@H]2NC(=O)[C@@H](O)CCN)OC[C@]1(C)O (stereo partly drawn) [Example 85, 2′-(Methyl-pyrrolidin-2-yl)-1-(4-amino-2(S)-hydroxy-butyryl)-sisomicin] | 1 to 16 (≈ 1.58 to 25.3 µM) | < 1 |
| CNCC(=O)N[C@@H]1CC=C(CN)O[C@@H]1O[C@H]1[C@H](O)[C@@H](O[C@H]2OC[C@](C)(O)[C@H](NC)[C@H]2O)[C@H](NC(=O)[C@@H](O)CCN)C[C@@H]1N [Example 86, 2′-(N-Methyl-amino-acetyl)-1-(4-amino-2(S)-hydroxy-butyryl)-sisomicin] | 1 to 16 (≈ 1.61 to 25.8 µM) | 1 to 16 (≈ 1.61 to 25.8 µM) |
| CN[C@@H]1[C@@H](O)[C@@H](O[C@@H]2[C@@H](O)[C@H](O[C@H]3OC(CN)=CC[C@H]3NC(=O)CN)[C@@H](N)C[C@H]2NC(=O)[C@@H](O)CCN)OC[C@]1(C)O [Example 87, 2′-(2-Amino-acetyl)-1-(4-amino-2(S)-hydroxy-butyryl)-sisomicin] | 1 to 16 (≈ 1.65 to 26.4 µM) | 1 to 16 (≈ 1.65 to 26.4 µM) |
| CN[C@@H]1[C@@H](O)[C@@H](O[C@@H]2[C@@H](O)[C@H](O[C@H]3OC(CN)=CC[C@H]3NC(=O)C(C)N)[C@@H](N)C[C@H]2NC(=O)[C@@H](O)CCN)OC[C@]1(C)O (stereo partly drawn) [Example 88, 2′-(2-Amino-propionyl)-1-(4-amino-2(S)-hydroxy-butyryl)-sisomicin] | 1 to 16 (≈ 1.61 to 25.8 µM) | 1 to 16 (≈ 1.61 to 25.8 µM) |
| CN[C@@H]1[C@@H](O)[C@@H](O[C@@H]2[C@@H](O)[C@H](O[C@H]3OC(CN)=CC[C@H]3NC(=O)C(O)CN)[C@@H](N)C[C@H]2NC(=O)[C@@H](O)CCN)OC[C@]1(C)O (stereo partly drawn) [Example 89, 2′-(3-Amino-2-hydroxy-propionyl)-1-(4-amino-2(S)-hydroxy-butyryl)-sisomicin] | 1 to 16 (≈ 1.57 to 25.2 µM) | < 1 |
| CN[C@@H]1[C@@H](O)[C@@H](O[C@@H]2[C@@H](O)[C@H](O[C@H]3OC(CN)=CC[C@H]3NC(=O)C3CCCN3)[C@@H](N)C[C@H]2NC(=O)[C@@H](O)CCN)OC[C@]1(C)O (stereo partly drawn) [Example 90] | 1 to 16 (≈ 1.55 to 24.8 µM) | < 1 |
| CN[C@@H]1[C@@H](O)[C@@H](O[C@@H]2[C@@H](O)[C@H](O[C@H]3OC(CN)=CC[C@H]3NCCCN)[C@@H](N)C[C@H]2NC(=O)[C@@H](O)CCN)OC[C@]1(C)O [Example 91, 2′-(3-Amino-propyl)-1-(4-amino-2(S)-hydroxy-butyryl)-sisomicin] | < 1 | < 1 |
| CN[C@@H]1[C@@H](O)[C@@H](O[C@@H]2[C@@H](O)[C@H](O[C@H]3OC(CN)=CC[C@H]3NC(=O)CC3CNCCO3)[C@@H](N)C[C@H]2NC(=O)[C@@H](O)CCN)OC[C@]1(C)O (stereo partly drawn) [Example 92, 2′-(Morpholin-2-yl-acetyl)-1-(4-amino-2(S)-hydroxy-butyryl)-sisomicin] | > 16 | < 1 |
| CN[C@@H]1[C@@H](O)[C@@H](O[C@@H]2[C@@H](O)[C@H](O[C@H]3OC(CN)=CC[C@H]3NS(=O)(=O)CCN)[C@@H](N)C[C@H]2NC(=O)[C@@H](O)CCN)OC[C@]1(C)O [Example 93, 2′-(2-Amino-ethyl-sulfonamide)-1-(4-amino-2(S)-hydroxy-butyryl)-sisomicin] | 1 to 16 (≈ 1.52 to 24.4 µM) | < 1 |
| CN[C@@H]1[C@@H](O)[C@@H](O[C@@H]2[C@@H](O)[C@H](O[C@H]3OC(CN)=CC[C@H]3NCC(C)(C)CN(C)C)[C@@H](N)C[C@H]2NC(=O)[C@@H](O)CCN)OC[C@]1(C)O [Example 94, 2′-(N, N-Dimethyl-2,2-dimethyl-3-amino-propyl)-1-(4-amino-2(S)-hydroxy-butyryl)-sisomicin] | > 16 | 1 to 16 (≈ 1.51 to 24.2 µM) |
| CN[C@@H]1[C@@H](O)[C@@H](O[C@@H]2[C@@H](O)[C@H](O[C@H]3OC(CN)=CC[C@H]3NC[C@H](C)N)[C@@H](N)C[C@H]2NC(=O)[C@@H](O)CCN)OC[C@]1(C)O [Example 95, 2′-(2(S)-Amino-propyl)-1-(4-amino-2(S)-hydroxy-butyryl)-sisomicin] | > 16 | < 1 |
| CN[C@@H]1[C@@H](O)[C@@H](O[C@@H]2[C@@H](O)[C@H](O[C@H]3OC(CN)=CC[C@H]3NCC(N)CO)[C@@H](N)C[C@H]2NC(=O)[C@@H](O)CCN)OC[C@]1(C)O (stereo partly drawn) [Example 97, 2′-(2-Amino-propanol)-1-(4-amino-2(S)-hydroxy-butyryl)-sisomicin] | 1 to 16 (≈ 1.61 to 25.7 µM) | < 1 |
